Results from patent publication US20220296108A1, “METHOD AND APPARATUS FOR QUANTITATION OF MICROCIRCULATION” (Seoul National University Hospital, priority 2019, published 2022).

How the values were obtained:
CLP mouse model [1] = experiment: Histological analysis of the number of sequestered neutrophils (Ly6G+ cells) in Mac-1-inhibited CLP mouse model; assay type: in vivo; conditions: vs CLP mouse model (Fc) and normal group (Sham), FIG. 28B
Description: Specifically, lung tissues were harvested after intravital imaging of the mouse models. The tissues were perfused and fixed with 4% paraformaldehyde and then further fixed overnight in 4% paraformaldehyde. For H&E (hematoxylin and eosin) staining, the fixed tissues were processed using standard procedures, embedded in paraffin and then sliced into 4-μm sections, followed by conventional H&E staining.

CLP mouse model [2] = experiment: Arterial blood gas analysis in CLP mouse model before and after abciximab; assay type: in vivo; conditions: post-Abc CLP mouse vs normal group (Sham)
Procedure: In addition, arterial blood gas analysis was performed to assess the oxygen partial pressure and carbon dioxide partial pressure in the arterial blood of the pre-Abc mouse model and the post-Abc mouse model. Specifically, a 1-mL syringe with a 22-gauge needle was coated with heparin and introduced into the left ventricle of the heart of the normal mouse model (Sham) (n=8), pre-Abc mouse model (Fc) (n=10) and post-Abc mouse model (Abc) (n=6). Then, about 200 μL of blood was sampled and analyzed with an i-STAT handheld blood analyzer (G3 cartridge, Abbott Point of Care Inc.). The mice were euthanized in a CO2 chamber right after the blood sampling.

CLP mouse model [3] = experiment: Functional capillary ratio (FCR) by intravital lung imaging in Mac-1-inhibited CLP mouse model
Procedure: CLP model was performed by a single experienced operator according to a previously described method. Specifically, 75% of the cecum of the LysM^GFP/+ mouse was ligated with 6-0 black silk and single puncture with a dual hole in the distal cecum was made with a 21-gauge needle. After the puncture, the cecum was gently squeezed to confirm the patency of the puncture hole for extrusion of feces. The cecum was replaced to the abdominal cavity and the abdominal incision was closed with 4-0 black silk. A normal group (sham group) underwent the same surgical procedure except the cecal ligation and puncture. […]
Specifically, three continuous laser modules (488 nm (MLD488, Cobolt), 561 nm (Jive, Cobolt) and 640 nm (MLD640, Cobolt)) were utilized as excitation light sources for multi-color fluorescence imaging. […] The fluorescence signals emitted from the lung of the mouse model on a XYZ translational 3D stage (3DMS, Sutter Instrument) were epi-detected by the objective lenses. De-scanned three-color fluorescence signals were spectrally divided by diachronic beam splitters (DBS4; FF560-Di01, DBS5; FF649-Di01, Semrock) and then detected by a photomultiplier (PMT; R9110, Hamamatsu) through bandpass filters (BPF1; FF02-525/50, BPF2; FF01-600/37, BPF3; FF01-685/40, Semrock). […]

Substance: abciximab
- Number of sequestered neutrophils (Ly6G+ cells) (CLP mouse model [1]): recovered to a level comparable to that of the normal group
- Oxygen partial pressure in arterial blood (CLP mouse model [2]; FIG. 31A): comparable to that of the normal group
- Carbon dioxide partial pressure in arterial blood (CLP mouse model [2]; FIG. 31B): comparable to that of the normal group
- Functional capillary ratio (FCR) increase after vs before abciximab administration (CLP mouse model [3]; CLP mouse imaged 6 hours after CLP (pre-Abc), then 30 minutes after abciximab (post-Abc)): ≥ 2 times
- Dead space and functional capillaries in pulmonary microcirculation imaging (CLP mouse model [3]; CLP mouse, vs CLP mouse model (Fc), FIG. 27): dead space was decreased
